These results are taken from patent publication US11242347B2, “2-phenyl-3,4-dihydropyrrolo[2,1-Ff] [1,2,4]triazinone derivatives as phosphodiesterase inhibitors and uses thereof” (TOPADUR PHARMA AG, priority 2015, dated 2022).

The structures appear in SMILES notation.

The test system of experiment [1] is human pulmonary artery smooth muscle cells (hPASMC). Put plainly: Measurements of cGMP in human pulmonary artery smooth muscle cells (hPASMC). It is filed as cell-based. The settings on record: incubation 15 or 30 min; compared with sildenafil. The method, then: Human Pulmonary Artery Smooth Muscle Cells (hPASMC) were purchased from Clonetics™ Lonza (Lonza, reference number CC-2581) and cultured in Clonetics' smooth muscle growth medium (Clonetics™ SmGM™-2 with BulletKit™ growth factor supplements (Lonza, reference number CC-3182) at 37° C. in 5% CO2. Culture medium was replaced each 48 hours. Cells were grown in 75 cm^2 culture plates.
48 h before the experiments, cells were trypsinized (Trypsin kit One ReagentPack™ (CC-5034), Lonza) and plated in 96 well plates precoated with collagen I at 10000 cells per well. 24 h before the experiments culture medium was replaced by serum-reduced (0.5% FBS) medium.
Measurements of intracellular cGMP were performed using the Amersham cGMP EIA System (GE Healthcare, RPN226) following the instructions of the manufacturer. The assay has a sensitivity of 2 fmol cGMP per well. Briefly, incubations were terminated by adding Amersham's lysis buffer 1 and cells left for 10 min under agitation to ensure complete lysis. cGMP in samples was then acetylated using triethylamine and acetic anhydride and determined by a competitive ELISA. The ELISA is based on the competition between acetylated cGMP in cell culture lysates and a peroxidase-labelled cGMP conjugate for limited binding sites on a cGMP specific antiserum immobilized on pre-coated 96 well MTP. cGMP was determined based on a standard curve. […]

Experiment [2] relates to phenylephrine-precontracted rat aortic rings. The experiment is described as follows: Isometric tension studies: relaxation of phenylephrine-precontracted rat aortic rings. The following applies: for IC40: concentration where 40% relaxation was achieved; for EC50 / Emax: Rattus norvegicus.
Protocol: After 1 week of acclimatization, rats were anesthetized. Appropriate depth of anesthesia was determined by the absence of the leg flexor response and the eyelid reflex. Then, the thorax was quickly opened by a midline incision, and the rat was sacrificed by cutting the heart and exsanguination.
Indomethacin (1 μM) was added to the saline solution.
Eligible rings were then washed several times to restore tension to the baseline level.
In some experiments, the entire length of the thoracic aorta was functionally denuded of the endothelial layer by gently scraping the luminal surface with a 1.5 mm glass rod. […] Rings were then washed several times to restore tension to the baseline level.
Indomethacin (1 μM) was added to the saline solution. […] Only vessels with at least 60% relaxation to 1 μM ACh from the tension with 300 nM were eligible.
The preparations were allowed to equilibrate for 60 min in Krebs with high glucose (25 mM) before contraction to a new single concentration of PE (300 nM).
Finally, sodium nitroprusside (0.1 mM) was added, in order to obtain maximum relaxation of arterial rings.
The amount of relaxation (percent values as means±SEM) was quantified as percent relaxation from the tension (plateau) achieved with phenylephrine.
Data are presented as mean±SEM. Statistical analysis of results has been performed by analysis of variance (ANOVA) either parametric or non-parametric (Kruskal-Wallis), followed by Bonferroni test or Dunn tests as appropriate (GraphPad Software Inc, San Diego, Calif., USA). Significance was accepted when P<0.05. Non-linear regression was conducted with GraphPad Software).

Regarding `CCCOc1ccc(S(=O)(=O)N2CCC(CCO[N+](=O)[O-])CC2)cc1-c1nn2c(CCC)c(/C=N/O)c(C)c2c(=O)[nH]1` [Compound 1v, (E)-2-(1-((3-(6-((hydroxyimino)methyl)-5-methyl-4-oxo-7-propyl-3,4-dihydropyrrolo[2,1-f][1,2,4]triazin-2-yl)-4-propoxyphenyl)sulfonyl)piperidin-4-yl)ethyl nitrate], the “cGMP formation in hPASMC, activity in words” value in experiment [1] was “significantly higher activity as compared to the reference inhibitor sildenafil”. The IC40 was 0.66 nM in experiment [2] (High Glucose (25 mM)), 0.0082 nM in experiment [2] (Intact Endothelium (E+)), 1.412 nM in experiment [2] (L-NAME (100 μM)) and 7.527 nM in experiment [2] (Without Endothelium). Further, the EC50 was determined as 0.181 nM in experiment [2] (High Glucose (25 mM)), 0.0111 nM in experiment [2] (Intact Endothelium (E+)), 0.267 nM in experiment [2] (L-NAME (100 μM)) and 0.218 nM in experiment [2] (Without Endothelium). Moreover, the Emax in experiment [2] (High Glucose (25 mM)) was determined as 64.2%; in experiment [2] (Intact Endothelium (E+)), 85.1%; in experiment [2] (L-NAME (100 μM)) it was 62%; in experiment [2] (Without Endothelium), 48.7%. Further, the “lower concentration for 40% relaxation related to sildenafil” value in experiment [2] (Without Endothelium) is reported as more than 130 fold; in experiment [2] (with L-NAME) it was approximately 68 fold; in experiment [2] (with high glucose) it was approximately 1250 fold; in experiment [2] (with intact endothelium) it was “about 24 fold”. Besides, the “more potent relaxation as compared to sildenafil (based on EC50)” value in experiment [2] (absence of endothelium) was “about 95 fold”; in experiment [2] (intact endothelium), “about 17 fold”; in experiment [2] (intact endothelium, pre-exposed to high (25 mM) glucose for 60 min), “about 110 fold”; in experiment [2] (presence of L-NAME) it was “about 22 fold”. Also, the “relaxation of rat aortic rings, result in words” value was “more potent and effective than Sildenafil” in experiment [2] (intact endothelium (FIG. 2A)); “clearly more potent and efficacious than 1r” in experiment [2] (pre-exposed to high glucose (25 mM) (FIG. 2B)).

In general, EC50 refers to the concentration giving half of the maximal effect. Lower therefore signals an effect from little substance. Broadly, the Emax is the greatest response seen or fitted, relative to the assay's reference.
